The values that follow come from patent US12331264B2, “Lipid nanoparticles for delivery of nucleic acids and methods of use thereof” (Akagera Medicines, Inc., priority 2020, dated 2025).

Series [1] is described as follows: Accelerated oxidation of ICLs with H2O2/Fe(III)Cl, UHPLC-CAD. The note with it: for % of parent lipid peak at time 0, 24 h / % of parent lipid peak at time 0, 48 h / % of parent lipid peak at time 0, 72 h: Table 14, ICL lipid suspensions, 1% H2O2/100 μM Fe(III)Cl, 37° C.; for degradation: after 48 hours of incubation with hydrogen peroxide. The class given is physicochemical. How it is done: Individual lipid stocks (10 mM) were prepared in ethanol and stored at −20° C. […] Liposomal formulations based on AKG-UO-1 and O-11769 ionizable cationic lipids (Table 12) were prepared by combining lipid mixtures of desired composition in 1 mL ethanol with 3 mL 6.25 mM sodium acetate, pH 5.0 at 6 mL/min on a NanoAssemblr (Precision Nanosystems). 3.6 mL of the mixture was retained, while the initial 0.35 mL of the mixture and final 0.05 mL were discarded. Ethanol was removed by buffer exchange into PBS, pH 7.4 by concentrating each liposome preparation using an Aminon-Ultra 4 centrifugal concentrator at 500 g for 10 min at 4° C. and diluting back to the original volume with PBS. This cycle was repeated multiple times until the ethanol concentration was <1%. Finally, liposomes were sterile filtered through 0.2 μm PES (Nalgene) syringe filters and size measured by a ZetaSizer (Malvern).
Aliquots of the liposomal formulations were stored at −80° C. and thawed before the experiment. A combined stock in water of 10% H2O2 (Sigma-Aldrich, cat #H1009) and 1 mM of Fe(III)Cl (Sigma-Aldrich, cat #372870) was freshly prepared prior to the treatment. To make 1% final concentration of H2O2 and 100 μM Fe(III)Cl, 10 μl of 10% H2O2/1 mM Fe(III)Cl stock was added to 90 μl of both liposomal formulations and individual lipids The liposomes and individual lipids were incubated with H2O2/Fe(III)Cl at 37° C. and then 5 μl from each sample was taken at different time points (0, 3, 24, 48 and 72 hours) and dissolved in 90 μl of MeOH for HPLC analysis. Degradation of the main lipid peak was analyzed using Thermo Scientific Vanquish Flex UHPLC occupied with Charged Aerosol Detector (CAD) and Thermo Scientific Accucore™ C18+ UHPLC column (L=50 mm, D=2.1 mm, Particle Size=1.5 μm).
The data are presented as a percentage of the main lipid peak measured at different time points relative to the lipid peak measured at time zero.

The nature of series [2]: Apparent pKa of ionizable lipid in LNP by TNS fluorescence. To be noted: pH 3, probe TNS (2-(p-toluidino)-6-naphthalene sulfonic acid).
Procedure: (§1) Using 1 M sodium hydroxide and 1 M hydrochloric acid, ˜20 unique buffers from the master buffer stock are prepared at different pH values between about 3 and 12. 300 mM 6-(p-Toluidino)-2-naphthalenesulfonic acid sodium salt (TNS reagent) solubilized in dimethyl sulfoxide (DMSO) is used as a stock. LNP are prepared and purified into the desired pH buffer with a final mRNA concentration of 0.04 mg/mL. Using a 96-well plate, preloaded with desired buffers, mRNA containing LNP are added to so that the final concentration of mRNA is 0.7 μg/mL. To each well, TNS is added so that the DMSO concentration is 1% (v/v). After mixing, the fluorescence of TNS in each well is measured (Ex/Em 331 nm/445 nm) and a sigmoidal best fit analysis is applied to the fluorescence data. The pKa is determined as the pH giving rise to half-maximal fluorescence intensity.
Series [3] in a line: physchem. To be noted: pH 3.
Procedure: as §1

In the case of `CCCCC/C=C\CCCC/C=C\CCCCCC1(CCCCC/C=C\CCCC/C=C\CCCCC)OC[C@H](CCN(C)C)O1` [KC2-01, 2-((S)-2,2-di((6Z,12Z)-octadeca-6,12-dien-1-yl)-1,3-dioxolan-4-yl)-N,N-dimethylethan-1-amine], in series [1], the “% of parent lipid peak at time 0, 24 h” value turned out to be 91 ± 0.3%; the “% of parent lipid peak at time 0, 48 h” value is on record as 87 ± 0.9%; the “% of parent lipid peak at time 0, 72 h” value stood at 83 ± 0.3%.
On to `CCC/C=C\CCCC/C=C\CCCCCC1(CCCCC/C=C\CCCC/C=C\CCC)OCC(CCCN(C)C)O1` (stereo not drawn) [Compound 8], for which the pKa (in general, the negative logarithm of the acid dissociation constant) in series [2] fell in the range of 6 to 7.
Still for that read-out and setting: in the case of `CCC/C=C\CCCC/C=C\CCCCC(=O)OC[C@H](CCN(C)C)OC(=O)CCCC/C=C\CCCC/C=C\CCC` [Compound 23] it was 6 to 7; in that of `CC/C=C\CCCC/C=C\CCCCCCCC(=O)OC[C@H](COP(=O)(OC)OCCCN(CC)CC)OC(=O)CCCCCCC/C=C\CCCC/C=C\CC` (stereo partly drawn) [Compound 21], 6 to 7; in that of `CC/C=C\CCCC/C=C\CCCCCCCCC(CCCCCCCC/C=C\CCCC/C=C\CC)OC(=O)CCCN(C)C` [Compound 10], 6 to 7.
As to `CCC/C=C\CCCC/C=C\CCCCC(=O)OC[C@H](COP(=O)(OC)OCCCN(C)C)OC(=O)CCCC/C=C\CCCC/C=C\CCC` (stereo partly drawn) [Compound 26], the pKa in series [2] fell in the range of 6 to 7.
`CCCCCCCC/C=C\CCSSCCCCC(CCCCSSCC/C=C\CCCCCCCC)OC(=O)CCCN(C)C` [Compound 31]: the pKa in series [2] fell in the range of 6 to 7.
Same read-out and setting: as for `CCCCC/C=C\CCCC/C=C\CCCCCC1(CCCCC/C=C\CCCC/C=C\CCCCC)OCC(CCN(C)C)O1` (stereo not drawn) [Compound 1], the figure is 6 to 7; as for `CCCCC/C=C\CCCC/C=C\CCCCCC1(CCCCC/C=C\CCCC/C=C\CCCCC)OCC(CCCN(C)C)O1` (stereo not drawn) [Compound 3], 6 to 7.
For the molecule `CC/C=C\CCCC/C=C\CCCCCCCC(=O)OC[C@H](COP(=O)(OC)OCCCCN(C)C)OC(=O)CCCCCCC/C=C\CCCC/C=C\CC` (stereo partly drawn) [Compound 22], in series [2], the pKa lay in the range of 6 to 7.
Turning to `CC/C=C\CCCC/C=C\CCCCCCCC(=O)OC[C@H](COP(=O)(OC)OCCCN(C)C)OC(=O)CCCCCCC/C=C\CCCC/C=C\CC` (stereo partly drawn) [Compound 20], the pKa in series [2] lay within 6 to 7.
Turning to `CCCCC/C=C\CCCC/C=C\CCCCCC1(CCCCC/C=C\CCCC/C=C\CCCCC)OC[C@H](CCCN(C)C)O1` [KC3-01, 3-((S)-2,2-di((6Z,12Z)-octadeca-6,12-dien-1-yl)-1,3-dioxolan-4-yl)-N,N-dimethylpropan-1-amine], in series [1], the “% of parent lipid peak at time 0, 24 h” value came out at 83 ± 4.3%; the “% of parent lipid peak at time 0, 48 h” value amounted to 80 ± 0.4%; the “% of parent lipid peak at time 0, 72 h” value came to 74 ± 2.2%.
As to `CC(C)CCC[C@@H](C)[C@H]1CCC2[C@@H]3CC=C4CC(SSCCCCN(C)C)CC[C@]4(C)[C@H]3CC[C@@]21C` (stereo partly drawn) [Compound 36], the pKa in series [3] lay in the range of 6 to 7.
As for `CC/C=C\CCCC/C=C\CCCCCCCCC1(CCCCCCCC/C=C\CCCC/C=C\CC)OCC(CCN(C)C)O1` (stereo not drawn) [Compound 2], in series [2], the pKa is 6 to 7.
On the same count and under the same terms, in the case of `CCCCCC/C=C\CCSSCCCCC1(CCCCSSCC/C=C\CCCCCC)OCC(CCN(C)C)O1` (stereo not drawn) [Compound 30] it was 6 to 7; in that of `CCCCCC/C=C\CCCCCCCCC(CCCCCCCC/C=C\CCCCCC)OC(=O)CCCN(C)C` [Compound 13], 6 to 7.
For the molecule `CCCCC/C=C\CCCC/C=C\CCCCC(=O)OC[C@H](CCN(C)C)OC(=O)CCCC/C=C\CCCC/C=C\CCCCC` [UO-1], in series [1], the “% of parent lipid peak at time 0, 24 h” value was found to be 78 ± 0.6%; the “% of parent lipid peak at time 0, 48 h” value is 74 ± 0.1%; the “% of parent lipid peak at time 0, 72 h” value turned out to be 65 ± 2.5%.
Turning to `CCCCC/C=C\C/C=C\CCCCCCCC(=O)OC[C@H](CCN(C)C)OC(=O)CCCCCCC/C=C\C/C=C\CCCCC` [Compound O-11769], in series [1], the “% of parent lipid peak at time 0, 24 h” value is reported as 31 ± 0.9%; the “% of parent lipid peak at time 0, 48 h” value is given as 1 ± 0.2%; the “% of parent lipid peak at time 0, 72 h” value was 0.3 ± 0.1%; the “degradation” value is recorded as “fully degraded”.
For `CCCCC/C=C\CCCC/C=C\CCCCCC1(CCCCC/C=C\CCCC/C=C\CCCCC)OCC(CCN(CC)CC)O1` (stereo not drawn) [Compound 6], in series [2], the pKa is 6 to 7.
For the molecule `CCC/C=C\CCCC/C=C\CCCCCC(CCCCC/C=C\CCCC/C=C\CCC)OC(=O)CCCN(CC)CC` [Compound 16], the pKa in series [2] lay in the range of 6 to 7.
Same read-out and setting: in the case of `CC/C=C\CCCC/C=C\CCCCCCCC(=O)OC[C@H](CCN(C)C)OC(=O)CCCCCCC/C=C\CCCC/C=C\CC` [Compound 17] it was 6 to 7.
In the case of `CCCCCC/C=C\CCSSCCCCC(CCCCSSCC/C=C\CCCCCC)OC(=O)CCCN(C)C` [Compound 32], in series [2], the pKa was 6 to 7.
Regarding `CCCCCCCC/C=C\CCSSCCCCC1(CCCCSSCC/C=C\CCCCCCCC)OCC(CCN(C)C)O1` (stereo not drawn) [Compound 29], the pKa in series [2] was in the range of 6 to 7.
Consider `CCC/C=C\CCCC/C=C\CCCCCC(CCCCC/C=C\CCCC/C=C\CCC)OC(=O)CCCCN(C)C` [Compound 15], for which, in series [2], the pKa was in the range of 6 to 7.
Consider `CCCCC/C=C\CCCC/C=C\CCCCCC(CCCCC/C=C\CCCC/C=C\CCCCC)OC(=O)CCCN(CC)CC` [Compound 11], for which the pKa in series [2] lay within 6 to 7.
For `CC/C=C\CCCC/C=C\CCCCCCCC(=O)OC[C@H](CCCN(C)C)OC(=O)CCCCCCC/C=C\CCCC/C=C\CC` [Compound 18], the pKa in series [2] fell in the range of 6 to 7.
For `CC(C)CCC[C@@H](C)[C@H]1CCC2[C@@H]3CC=C4CC(SSCCCN(C)C)CC[C@]4(C)[C@H]3CC[C@@]21C` (stereo partly drawn) [Compound 35], in series [3], the pKa lay within 6 to 7.
For the molecule `CCC/C=C\CCCC/C=C\CCCCC(=O)OC[C@H](COP(=O)(OC)OCCCN(CC)CC)OC(=O)CCCC/C=C\CCCC/C=C\CCC` (stereo partly drawn) [Compound 27], in series [2], the pKa lay in the range of 6 to 7.
On to `CCC/C=C\CCCC/C=C\CCCCCC1(CCCCC/C=C\CCCC/C=C\CCC)OCC(CCN(CC)CC)O1` (stereo not drawn) [Compound 7], for which the pKa in series [2] was 6 to 7.
Regarding `CCCCC/C=C\CCCC/C=C\CCCCCC(CCCCC/C=C\CCCC/C=C\CCCCC)OC(=O)CCCN(C)C` [Compound 9], the pKa in series [2] was 6 to 7.
Consider `CCC/C=C\CCCC/C=C\CCCCC(=O)OC[C@H](COP(=O)(OC)OCCCCN(C)C)OC(=O)CCCC/C=C\CCCC/C=C\CCC` (stereo partly drawn) [Compound 28], for which the pKa in series [2] was in the range of 6 to 7.
The same measure, in the same setting: as for `CCC/C=C\CCCC/C=C\CCCCC(=O)OC[C@H](CCCN(C)C)OC(=O)CCCC/C=C\CCCC/C=C\CCC` [Compound 25], the figure is 6 to 7.
As for `CCCCC/C=C\C/C=C\CCCCCCCCC1(CCCCCCCC/C=C\C/C=C\CCCCC)OCC(CCN(C)C)O1` (stereo not drawn) [KC2, DLin-KC2-DMA], in series [1], the “% of parent lipid peak at time 0, 24 h” value was 35 ± 0.7%; the “% of parent lipid peak at time 0, 48 h” value is 6 ± 1.9%; the “% of parent lipid peak at time 0, 72 h” value is listed as 0 ± 0.0%; the “degradation” value is reported as “fully degraded”.
Take `CCC/C=C\CCCC/C=C\CCCCCC(CCCCC/C=C\CCCC/C=C\CCC)OC(=O)CCCN(C)C` [Compound 14]: the pKa in series [2] was in the range of 6 to 7.
As to `CCCCC/C=C\CCCC/C=C\CCCCCC(CCCCC/C=C\CCCC/C=C\CCCCC)OC(=O)CCCCN(C)C` [Compound 12], the pKa in series [2] lay within 6 to 7.
For the molecule `CC/C=C\CCCC/C=C\CCCCCCCC(=O)OC[C@H](CCN(CC)CC)OC(=O)CCCCCCC/C=C\CCCC/C=C\CC` [Compound 19], the pKa in series [2] lay in the range of 6 to 7.
Same read-out and setting: as for `CCC/C=C\CCCC/C=C\CCCCCC1(CCCCC/C=C\CCCC/C=C\CCC)OCC(CCN(C)C)O1` (stereo not drawn) [Compound 5], the figure is 6 to 7; as for `CCCCCCCC/C=C\CCSSCCCC(=O)OC[C@H](CCN(C)C)OC(=O)CCCSSCC/C=C\CCCCCCCC` [Compound 33], 6 to 7.
Same read-out and setting: as for `CCCCCC/C=C\CCCCCCCCC1(CCCCCCCC/C=C\CCCCCC)OCC(CCN(C)C)O1` (stereo not drawn) [Compound 4], the figure is 6 to 7; as for `CCC/C=C\CCCC/C=C\CCCCC(=O)OC[C@H](CCN(CC)CC)OC(=O)CCCC/C=C\CCCC/C=C\CCC` [Compound 24], 6 to 7; as for `CCCCCC/C=C\CCSSCCCC(=O)OC[C@H](CCN(C)C)OC(=O)CCCSSCC/C=C\CCCCCC` [Compound 34], 6 to 7.
In the case of `CCCCC/C=C\C/C=C\CCCCCCCCC1(CCCCCCCC/C=C\C/C=C\CCCCC)OCC(CCCN(C)C)O1` (stereo not drawn) [KC3, Dlin-KC3-DMA], in series [1], the “% of parent lipid peak at time 0, 24 h” value is 46 ± 1.8%; the “% of parent lipid peak at time 0, 48 h” value turned out to be 1 ± 0.2%; the “% of parent lipid peak at time 0, 72 h” value is reported as 0 ± 0.0%; the “degradation” value is recorded as “fully degraded”.
